# Results taken from the kinase profiling compilation of Christmann-Franck et al. (2016).
# What was measured:
# Experiment in all cases: KINOMEscan competition binding
# [1] = tested on: ABL1 (human), P00519 [Y253F]
# ABL2 (human) = ABL2 (human) (UniProt P42684)
# AKT2 (human) = AKT2 (human) (UniProt P31751)
# ALK (human) = ALK (human) (UniProt Q9UM73)
# BLK (human) = BLK (human) (UniProt P51451)
# CAMK2B (human) = CAMK2B (human) (UniProt Q13554)
# CAMKK1 (human) = CAMKK1 (human) (UniProt Q8N5S9)
# CDKL2 (human) = CDKL2 (human) (UniProt Q92772)
# Chain of CDKL2 (human) (Q92772 whole entry, looked up): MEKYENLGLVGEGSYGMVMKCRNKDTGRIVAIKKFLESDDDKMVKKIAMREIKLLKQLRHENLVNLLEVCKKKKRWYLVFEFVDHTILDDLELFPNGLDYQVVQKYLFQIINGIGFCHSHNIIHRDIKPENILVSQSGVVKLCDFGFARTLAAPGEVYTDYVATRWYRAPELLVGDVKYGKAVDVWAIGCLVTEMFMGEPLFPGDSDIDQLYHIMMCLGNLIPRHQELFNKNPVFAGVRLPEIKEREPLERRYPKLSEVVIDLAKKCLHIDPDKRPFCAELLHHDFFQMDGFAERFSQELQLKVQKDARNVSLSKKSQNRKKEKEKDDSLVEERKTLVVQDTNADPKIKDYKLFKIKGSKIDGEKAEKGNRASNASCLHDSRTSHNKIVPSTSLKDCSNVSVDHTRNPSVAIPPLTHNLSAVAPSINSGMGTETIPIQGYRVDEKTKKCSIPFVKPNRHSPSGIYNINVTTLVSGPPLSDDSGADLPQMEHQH
# CDKL3 (human) = CDKL3 (human) (UniProt Q8IVW4)
# CSK (human) = CSK (human) (UniProt P41240)
# CSNK1G1 (human) = CSNK1G1 (human) (UniProt Q9HCP0)
# Chain of CSNK1G1 (human) (Q9HCP0 whole entry, looked up): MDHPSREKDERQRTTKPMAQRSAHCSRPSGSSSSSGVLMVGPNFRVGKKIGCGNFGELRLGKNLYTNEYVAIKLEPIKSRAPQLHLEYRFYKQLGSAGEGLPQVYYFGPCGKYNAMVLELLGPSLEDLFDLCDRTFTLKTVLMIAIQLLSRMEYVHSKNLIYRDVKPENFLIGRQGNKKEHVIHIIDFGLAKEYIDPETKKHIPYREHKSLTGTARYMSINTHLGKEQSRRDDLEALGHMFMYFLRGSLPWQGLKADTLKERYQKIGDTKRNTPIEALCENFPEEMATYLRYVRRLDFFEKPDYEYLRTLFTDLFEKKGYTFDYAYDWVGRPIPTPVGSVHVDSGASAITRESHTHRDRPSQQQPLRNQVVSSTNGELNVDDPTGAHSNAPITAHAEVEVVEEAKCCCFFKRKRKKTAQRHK
# DAPK2 (human) = DAPK2 (human) (UniProt Q9UIK4)
# ERN1 (human) = ERN1 (human) (UniProt O75460)
# [2] = tested on: FLT3 (human), P36888 [R834Q]
# HCK (human) = HCK (human) (UniProt P08631)
# HIPK4 (human) = HIPK4 (human) (UniProt Q8NE63)
# [3] = target: JAK1 JH1 catalytic (human) (UniProt P23458)
# [4] = tested on: KIT (human), P10721 [V559D/V654A]
# [5] = tested on: KIT (human), P10721 [V559D]
# MAK (human) = MAK (human) (UniProt P20794)
# MAP3K9 (human) = MAP3K9 (human) (UniProt P80192)
# MAPK15 (human) = MAPK15 (human) (UniProt Q8TD08)
# Chain of MAPK15 (human) (Q8TD08 whole entry, looked up): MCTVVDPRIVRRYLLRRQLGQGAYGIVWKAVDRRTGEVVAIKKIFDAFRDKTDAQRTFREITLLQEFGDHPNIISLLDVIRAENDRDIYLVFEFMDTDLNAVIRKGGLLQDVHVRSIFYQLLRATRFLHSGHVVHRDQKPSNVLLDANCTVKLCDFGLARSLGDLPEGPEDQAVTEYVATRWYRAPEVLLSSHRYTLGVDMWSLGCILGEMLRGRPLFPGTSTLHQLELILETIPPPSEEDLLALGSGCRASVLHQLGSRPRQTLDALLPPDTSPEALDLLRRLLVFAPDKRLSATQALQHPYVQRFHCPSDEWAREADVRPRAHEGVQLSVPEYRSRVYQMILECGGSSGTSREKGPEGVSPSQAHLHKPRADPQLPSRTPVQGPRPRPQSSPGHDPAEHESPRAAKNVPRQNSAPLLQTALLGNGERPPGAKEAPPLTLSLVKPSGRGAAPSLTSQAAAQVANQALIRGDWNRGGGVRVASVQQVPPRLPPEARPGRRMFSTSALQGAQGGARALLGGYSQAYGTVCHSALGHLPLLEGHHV
# MAPK8 (human) = MAPK8 (human) (UniProt P45983)
# MAPK9 (human) = MAPK9 (human) (UniProt P45984)
# MARK3 (human) = MARK3 (human) (UniProt P27448)
# MARK4 (human) = MARK4 (human) (UniProt Q96L34)
# MTOR (human) = MTOR (human) (UniProt P42345)
# NLK (human) = NLK (human) (UniProt Q9UBE8)
# PDPK1 (human) = PDPK1 (human) (UniProt O15530)
# PHKG2 (human) = PHKG2 (human) (UniProt P15735)
# [6] = tested on: PIK3CA (human), P42336 [Q546K]
# PIK3CB (human) = PIK3CB (human) (UniProt P42338)
# Chain of PIK3CB (human) (P42338 whole entry, looked up): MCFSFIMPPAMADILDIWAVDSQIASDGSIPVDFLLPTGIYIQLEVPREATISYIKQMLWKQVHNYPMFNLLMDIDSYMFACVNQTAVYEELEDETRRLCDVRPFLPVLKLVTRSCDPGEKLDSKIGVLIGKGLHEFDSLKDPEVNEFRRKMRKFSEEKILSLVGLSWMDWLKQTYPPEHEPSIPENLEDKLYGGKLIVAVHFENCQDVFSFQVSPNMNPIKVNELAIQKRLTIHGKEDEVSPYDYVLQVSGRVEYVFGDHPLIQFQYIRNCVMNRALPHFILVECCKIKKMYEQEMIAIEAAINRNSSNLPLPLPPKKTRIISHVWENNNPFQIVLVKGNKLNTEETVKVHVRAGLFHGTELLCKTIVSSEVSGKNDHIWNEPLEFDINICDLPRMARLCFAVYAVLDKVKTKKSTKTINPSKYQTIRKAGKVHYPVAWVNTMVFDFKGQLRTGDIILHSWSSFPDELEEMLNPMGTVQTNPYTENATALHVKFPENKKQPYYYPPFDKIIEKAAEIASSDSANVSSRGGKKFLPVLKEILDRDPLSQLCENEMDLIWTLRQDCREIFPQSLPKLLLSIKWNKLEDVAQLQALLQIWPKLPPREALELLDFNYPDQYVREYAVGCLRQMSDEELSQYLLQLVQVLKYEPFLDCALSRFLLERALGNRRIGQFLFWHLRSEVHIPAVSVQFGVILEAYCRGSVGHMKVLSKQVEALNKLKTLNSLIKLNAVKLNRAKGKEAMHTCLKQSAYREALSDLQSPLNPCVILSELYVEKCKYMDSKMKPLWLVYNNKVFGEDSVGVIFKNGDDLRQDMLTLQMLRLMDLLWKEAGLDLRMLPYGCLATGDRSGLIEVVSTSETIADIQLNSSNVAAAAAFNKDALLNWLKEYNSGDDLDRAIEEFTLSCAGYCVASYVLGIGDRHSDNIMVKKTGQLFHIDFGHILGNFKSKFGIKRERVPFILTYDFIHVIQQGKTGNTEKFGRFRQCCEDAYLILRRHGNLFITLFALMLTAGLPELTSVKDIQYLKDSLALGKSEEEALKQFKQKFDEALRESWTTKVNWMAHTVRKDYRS
# PRKAA2 (human) = PRKAA2 (human) (UniProt P54646)
# Chain of PRKAA2 (human) (P54646 whole entry, looked up): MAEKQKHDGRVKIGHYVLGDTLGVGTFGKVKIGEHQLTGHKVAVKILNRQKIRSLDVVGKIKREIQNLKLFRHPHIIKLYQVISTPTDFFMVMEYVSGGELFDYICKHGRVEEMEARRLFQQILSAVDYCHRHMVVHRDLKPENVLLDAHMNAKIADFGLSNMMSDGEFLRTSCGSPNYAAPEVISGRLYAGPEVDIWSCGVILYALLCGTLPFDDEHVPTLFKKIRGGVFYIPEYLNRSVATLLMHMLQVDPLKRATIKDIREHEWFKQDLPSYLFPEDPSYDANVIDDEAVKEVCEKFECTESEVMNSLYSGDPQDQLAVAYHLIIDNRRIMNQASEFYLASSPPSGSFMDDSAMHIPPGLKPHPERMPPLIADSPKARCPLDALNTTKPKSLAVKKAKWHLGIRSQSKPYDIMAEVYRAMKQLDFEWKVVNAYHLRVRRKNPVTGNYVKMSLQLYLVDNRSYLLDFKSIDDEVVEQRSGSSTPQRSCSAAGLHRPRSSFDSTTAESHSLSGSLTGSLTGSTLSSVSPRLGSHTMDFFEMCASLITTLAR
# PRKCI (human) = PRKCI (human) (UniProt P41743)
# ROCK1 (human) = ROCK1 (human) (UniProt Q13464)
# ROCK2 (human) = ROCK2 (human) (UniProt O75116)
# RPS6KA4 KD1 (human) = RPS6KA4 KD1 (human) (UniProt O75676)
# RPS6KB1 (human) = RPS6KB1 (human) (UniProt P23443)
# Chain of RPS6KB1 (human) (P23443 whole entry, looked up): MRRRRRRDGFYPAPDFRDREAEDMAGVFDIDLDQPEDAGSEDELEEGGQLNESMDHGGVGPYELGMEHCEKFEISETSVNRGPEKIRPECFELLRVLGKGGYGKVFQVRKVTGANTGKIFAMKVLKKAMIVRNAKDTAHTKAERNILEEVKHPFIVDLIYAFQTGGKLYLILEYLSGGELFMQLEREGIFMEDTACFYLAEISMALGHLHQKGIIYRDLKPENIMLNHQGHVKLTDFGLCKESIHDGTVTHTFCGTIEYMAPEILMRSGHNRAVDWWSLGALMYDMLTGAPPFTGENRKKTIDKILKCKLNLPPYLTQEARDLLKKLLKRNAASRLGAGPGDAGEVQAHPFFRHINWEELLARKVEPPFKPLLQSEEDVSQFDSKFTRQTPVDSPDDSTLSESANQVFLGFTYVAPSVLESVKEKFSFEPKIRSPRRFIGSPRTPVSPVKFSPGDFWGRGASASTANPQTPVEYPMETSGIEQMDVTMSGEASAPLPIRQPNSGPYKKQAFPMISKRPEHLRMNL
# STK10 (human) = STK10 (human) (UniProt O94804)
# Chain of STK10 (human) (O94804 whole entry, looked up): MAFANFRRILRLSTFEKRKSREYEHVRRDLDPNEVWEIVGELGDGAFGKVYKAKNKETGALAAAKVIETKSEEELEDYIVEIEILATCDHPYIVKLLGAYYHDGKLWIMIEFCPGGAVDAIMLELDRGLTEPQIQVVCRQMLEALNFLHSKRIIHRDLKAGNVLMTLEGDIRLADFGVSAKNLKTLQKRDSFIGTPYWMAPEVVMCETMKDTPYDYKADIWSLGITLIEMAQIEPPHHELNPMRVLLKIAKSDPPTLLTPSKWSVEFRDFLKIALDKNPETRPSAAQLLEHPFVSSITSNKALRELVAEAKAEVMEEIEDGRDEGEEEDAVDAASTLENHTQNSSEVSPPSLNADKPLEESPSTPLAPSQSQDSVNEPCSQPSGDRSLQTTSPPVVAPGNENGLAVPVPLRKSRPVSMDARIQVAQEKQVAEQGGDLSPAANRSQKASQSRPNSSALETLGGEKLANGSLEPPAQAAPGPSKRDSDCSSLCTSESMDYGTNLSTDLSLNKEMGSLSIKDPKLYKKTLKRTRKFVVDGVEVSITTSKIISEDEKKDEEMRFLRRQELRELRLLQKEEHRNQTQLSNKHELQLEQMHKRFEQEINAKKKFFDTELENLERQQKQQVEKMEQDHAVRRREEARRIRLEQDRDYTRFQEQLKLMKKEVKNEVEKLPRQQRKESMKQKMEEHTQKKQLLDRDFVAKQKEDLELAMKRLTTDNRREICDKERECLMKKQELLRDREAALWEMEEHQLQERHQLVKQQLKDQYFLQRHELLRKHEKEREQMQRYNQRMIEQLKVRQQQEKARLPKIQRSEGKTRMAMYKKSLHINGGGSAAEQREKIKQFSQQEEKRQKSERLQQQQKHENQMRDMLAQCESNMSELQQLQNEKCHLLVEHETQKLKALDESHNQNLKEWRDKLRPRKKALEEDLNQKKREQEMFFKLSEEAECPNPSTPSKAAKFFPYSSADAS
# STK11 (human) = STK11 (human) (UniProt Q15831)
# Chain of STK11 (human) (Q15831 whole entry, looked up): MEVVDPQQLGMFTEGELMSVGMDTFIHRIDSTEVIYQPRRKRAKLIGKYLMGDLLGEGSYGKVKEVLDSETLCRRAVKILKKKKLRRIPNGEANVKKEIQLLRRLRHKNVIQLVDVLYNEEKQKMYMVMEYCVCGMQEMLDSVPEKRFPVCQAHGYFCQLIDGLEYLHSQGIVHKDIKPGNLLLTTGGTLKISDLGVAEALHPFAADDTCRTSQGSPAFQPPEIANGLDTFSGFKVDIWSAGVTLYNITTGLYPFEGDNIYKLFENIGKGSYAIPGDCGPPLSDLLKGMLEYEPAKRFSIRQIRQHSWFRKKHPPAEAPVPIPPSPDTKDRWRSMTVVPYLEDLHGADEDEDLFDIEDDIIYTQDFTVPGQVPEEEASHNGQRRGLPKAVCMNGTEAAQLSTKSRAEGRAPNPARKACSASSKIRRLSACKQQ
# STK39 (human) = STK39 (human) (UniProt Q9UEW8)
# SYK (human) = SYK (human) (UniProt P43405)
# TNNI3K (human) = TNNI3K (human) (UniProt Q59H18)
structure (smiles),measurement,setting,value
Cc1ccc(NC(=O)c2ccc(NC(=O)/C=C/CN(C)C)cc2)cc1Nc1nccc(-c2cccnc2)n1,"kinase still bound, per cent of control",[1]; compound 10.0 µM,39%
same,"kinase still bound, per cent of control",ABL2 (human); compound 10.0 µM,44%
same,"kinase still bound, per cent of control",AKT2 (human); compound 10.0 µM,100%
same,"kinase still bound, per cent of control",ALK (human); compound 10.0 µM,100%
same,"kinase still bound, per cent of control",BLK (human); compound 10.0 µM,60%
same,"kinase still bound, per cent of control",CAMK2B (human); compound 10.0 µM,100%
same,"kinase still bound, per cent of control",CAMKK1 (human); compound 10.0 µM,99%
same,"kinase still bound, per cent of control",CDKL2 (human); compound 10.0 µM,100%
same,"kinase still bound, per cent of control",CDKL3 (human); compound 10.0 µM,100%
same,"kinase still bound, per cent of control",CSK (human); compound 10.0 µM,100%
same,"kinase still bound, per cent of control",CSNK1G1 (human); compound 10.0 µM,85%
same,"kinase still bound, per cent of control",DAPK2 (human); compound 10.0 µM,82%
same,"kinase still bound, per cent of control",ERN1 (human); compound 10.0 µM,98%
same,"kinase still bound, per cent of control",[2]; compound 10.0 µM,56%
same,"kinase still bound, per cent of control",HCK (human); compound 10.0 µM,89%
same,"kinase still bound, per cent of control",HIPK4 (human); compound 10.0 µM,18%
same,"kinase still bound, per cent of control",[3]; compound 10.0 µM,100%
same,"kinase still bound, per cent of control",[4]; compound 10.0 µM,3.4%
same,"kinase still bound, per cent of control",[5]; compound 10.0 µM,0%
same,"kinase still bound, per cent of control",MAK (human); compound 10.0 µM,100%
same,"kinase still bound, per cent of control",MAP3K9 (human); compound 10.0 µM,100%
same,"kinase still bound, per cent of control",MAPK15 (human); compound 10.0 µM,100%
same,Kd,MAPK8 (human),290 nM
same,"kinase still bound, per cent of control",MAPK8 (human); compound 10.0 µM,0%
same,Kd,MAPK9 (human),160 nM
same,"kinase still bound, per cent of control",MAPK9 (human); compound 10.0 µM,1.1%
same,"kinase still bound, per cent of control",MARK3 (human); compound 10.0 µM,100%
same,"kinase still bound, per cent of control",MARK4 (human); compound 10.0 µM,77%
same,"kinase still bound, per cent of control",MTOR (human); compound 10.0 µM,100%
same,"kinase still bound, per cent of control",NLK (human); compound 10.0 µM,100%
same,"kinase still bound, per cent of control",PDPK1 (human); compound 10.0 µM,100%
same,"kinase still bound, per cent of control",PHKG2 (human); compound 10.0 µM,86%
same,"kinase still bound, per cent of control",[6]; compound 10.0 µM,94%
same,"kinase still bound, per cent of control",PIK3CB (human); compound 10.0 µM,100%
same,"kinase still bound, per cent of control",PRKAA2 (human); compound 10.0 µM,56%
same,"kinase still bound, per cent of control",PRKCI (human); compound 10.0 µM,97%
same,"kinase still bound, per cent of control",ROCK1 (human); compound 10.0 µM,59%
same,"kinase still bound, per cent of control",ROCK2 (human); compound 10.0 µM,61%
same,"kinase still bound, per cent of control",RPS6KA4 KD1 (human); compound 10.0 µM,100%
same,"kinase still bound, per cent of control",RPS6KB1 (human); compound 10.0 µM,100%
same,"kinase still bound, per cent of control",STK10 (human); compound 10.0 µM,89%
same,"kinase still bound, per cent of control",STK11 (human); compound 10.0 µM,92%
same,"kinase still bound, per cent of control",STK39 (human); compound 10.0 µM,82%
same,"kinase still bound, per cent of control",SYK (human); compound 10.0 µM,62%
same,"kinase still bound, per cent of control",TNNI3K (human); compound 10.0 µM,100%
Cc1cc(NC(=O)c2cccc(NC(=O)/C=C/CN(C)C)c2)ccc1Nc1nccc(-c2cccnc2)n1,"kinase still bound, per cent of control",[1]; compound 1.0 µM,71%
same,"kinase still bound, per cent of control",ABL2 (human); compound 1.0 µM,97%
same,"kinase still bound, per cent of control",AKT2 (human); compound 1.0 µM,100%
same,"kinase still bound, per cent of control",ALK (human); compound 1.0 µM,85%
same,"kinase still bound, per cent of control",BLK (human); compound 1.0 µM,65%
same,"kinase still bound, per cent of control",CAMK2B (human); compound 1.0 µM,100%
same,"kinase still bound, per cent of control",CAMKK1 (human); compound 1.0 µM,100%
same,"kinase still bound, per cent of control",CDKL2 (human); compound 1.0 µM,82%
same,"kinase still bound, per cent of control",CDKL3 (human); compound 1.0 µM,100%
same,"kinase still bound, per cent of control",CSK (human); compound 1.0 µM,100%
same,"kinase still bound, per cent of control",CSNK1G1 (human); compound 1.0 µM,100%
same,"kinase still bound, per cent of control",DAPK2 (human); compound 1.0 µM,77%
same,"kinase still bound, per cent of control",ERN1 (human); compound 1.0 µM,73%
same,"kinase still bound, per cent of control",[2]; compound 1.0 µM,100%
same,"kinase still bound, per cent of control",HCK (human); compound 1.0 µM,100%
same,"kinase still bound, per cent of control",HIPK4 (human); compound 1.0 µM,4%
same,"kinase still bound, per cent of control",[3]; compound 1.0 µM,98%
same,"kinase still bound, per cent of control",[4]; compound 1.0 µM,81%
same,"kinase still bound, per cent of control",[5]; compound 1.0 µM,0.95%
same,"kinase still bound, per cent of control",MAK (human); compound 1.0 µM,100%
same,"kinase still bound, per cent of control",MAP3K9 (human); compound 1.0 µM,100%
same,"kinase still bound, per cent of control",MAPK15 (human); compound 1.0 µM,100%
same,"kinase still bound, per cent of control",MAPK8 (human); compound 1.0 µM,0%
same,"kinase still bound, per cent of control",MAPK9 (human); compound 1.0 µM,0%
same,"kinase still bound, per cent of control",MARK3 (human); compound 1.0 µM,100%
same,"kinase still bound, per cent of control",MARK4 (human); compound 1.0 µM,97%
same,"kinase still bound, per cent of control",MTOR (human); compound 1.0 µM,100%
same,"kinase still bound, per cent of control",NLK (human); compound 1.0 µM,70%
same,"kinase still bound, per cent of control",PDPK1 (human); compound 1.0 µM,61%
same,"kinase still bound, per cent of control",PHKG2 (human); compound 1.0 µM,89%
same,"kinase still bound, per cent of control",[6]; compound 1.0 µM,100%
same,"kinase still bound, per cent of control",PIK3CB (human); compound 1.0 µM,79%
same,"kinase still bound, per cent of control",PRKAA2 (human); compound 1.0 µM,84%
same,"kinase still bound, per cent of control",PRKCI (human); compound 1.0 µM,93%
same,"kinase still bound, per cent of control",ROCK1 (human); compound 1.0 µM,63%
same,"kinase still bound, per cent of control",ROCK2 (human); compound 1.0 µM,49%
same,"kinase still bound, per cent of control",RPS6KA4 KD1 (human); compound 1.0 µM,79%
same,"kinase still bound, per cent of control",RPS6KB1 (human); compound 1.0 µM,100%
same,"kinase still bound, per cent of control",STK10 (human); compound 1.0 µM,100%
same,"kinase still bound, per cent of control",STK11 (human); compound 1.0 µM,100%
same,"kinase still bound, per cent of control",STK39 (human); compound 1.0 µM,95%
same,"kinase still bound, per cent of control",SYK (human); compound 1.0 µM,100%
same,"kinase still bound, per cent of control",TNNI3K (human); compound 1.0 µM,100%
CN(C)C/C=C/C(=O)Nc1cccc(C(=O)Nc2ccc(Nc3nccc(-c4c(-c5ccccc5)nn5ccccc45)n3)cc2)c1,"kinase still bound, per cent of control",[1]; compound 1.0 µM,1.6%
same,"kinase still bound, per cent of control",ABL2 (human); compound 1.0 µM,21%
same,"kinase still bound, per cent of control",AKT2 (human); compound 1.0 µM,100%
same,"kinase still bound, per cent of control",ALK (human); compound 1.0 µM,100%
same,"kinase still bound, per cent of control",BLK (human); compound 1.0 µM,5.9%
same,"kinase still bound, per cent of control",CAMK2B (human); compound 1.0 µM,100%
same,"kinase still bound, per cent of control",CAMKK1 (human); compound 1.0 µM,100%
same,"kinase still bound, per cent of control",CDKL2 (human); compound 1.0 µM,74%
same,"kinase still bound, per cent of control",CDKL3 (human); compound 1.0 µM,100%
same,"kinase still bound, per cent of control",CSK (human); compound 1.0 µM,89%
same,"kinase still bound, per cent of control",CSNK1G1 (human); compound 1.0 µM,39%
same,"kinase still bound, per cent of control",DAPK2 (human); compound 1.0 µM,97%
same,"kinase still bound, per cent of control",ERN1 (human); compound 1.0 µM,100%
same,"kinase still bound, per cent of control",[2]; compound 1.0 µM,68%
same,"kinase still bound, per cent of control",HCK (human); compound 1.0 µM,23%
same,"kinase still bound, per cent of control",HIPK4 (human); compound 1.0 µM,70%
same,"kinase still bound, per cent of control",[3]; compound 1.0 µM,89%
same,"kinase still bound, per cent of control",[4]; compound 1.0 µM,49%
same,"kinase still bound, per cent of control",[5]; compound 1.0 µM,0.6%
same,"kinase still bound, per cent of control",MAK (human); compound 1.0 µM,100%
same,"kinase still bound, per cent of control",MAP3K9 (human); compound 1.0 µM,59%
same,"kinase still bound, per cent of control",MAPK15 (human); compound 1.0 µM,93%
same,"kinase still bound, per cent of control",MAPK8 (human); compound 1.0 µM,0%
same,"kinase still bound, per cent of control",MAPK9 (human); compound 1.0 µM,0%
same,"kinase still bound, per cent of control",MARK3 (human); compound 1.0 µM,75%
same,"kinase still bound, per cent of control",MARK4 (human); compound 1.0 µM,100%
same,"kinase still bound, per cent of control",MTOR (human); compound 1.0 µM,100%
same,"kinase still bound, per cent of control",NLK (human); compound 1.0 µM,12%
same,"kinase still bound, per cent of control",PDPK1 (human); compound 1.0 µM,100%
same,"kinase still bound, per cent of control",PHKG2 (human); compound 1.0 µM,100%
same,"kinase still bound, per cent of control",[6]; compound 1.0 µM,100%
same,"kinase still bound, per cent of control",PIK3CB (human); compound 1.0 µM,100%
same,"kinase still bound, per cent of control",PRKAA2 (human); compound 1.0 µM,90%
same,"kinase still bound, per cent of control",PRKCI (human); compound 1.0 µM,46%
same,"kinase still bound, per cent of control",ROCK1 (human); compound 1.0 µM,59%
same,"kinase still bound, per cent of control",ROCK2 (human); compound 1.0 µM,75%
same,"kinase still bound, per cent of control",RPS6KA4 KD1 (human); compound 1.0 µM,88%
same,"kinase still bound, per cent of control",RPS6KB1 (human); compound 1.0 µM,83%
same,"kinase still bound, per cent of control",STK10 (human); compound 1.0 µM,23%
same,"kinase still bound, per cent of control",STK11 (human); compound 1.0 µM,93%
same,"kinase still bound, per cent of control",STK39 (human); compound 1.0 µM,82%
same,"kinase still bound, per cent of control",SYK (human); compound 1.0 µM,82%
same,"kinase still bound, per cent of control",TNNI3K (human); compound 1.0 µM,100%
